Results: ChEMBL document CHEMBL1201862, “PubChem BioAssay data set” (2004)
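Protocol summary: plate cells (96-well), add compound at 5 concentrations, incubate 48 h, interpolate endpoints linearly. Abbreviation: GI50, concentration required for 50% inhibition of growth.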 Calls of active or inactive are those of the source. Rule as the data show it: active = GI50 up to about 1.1 µM and inactive = higher.

Experiments:
Assay in all cases: NCI anticancer screen, dose series, 48 h
[1] = test system: SNB-75
[2] = test system: DMS-114
[3] = test system: DMS-273
[4] = test system: ACHN
[5] = test system: A498
[6] = test system: A549
[7] = test system: NCI-H226
[8] = test system: TK-10
[9] = test system: M19-MEL
[10] = test system: M14
[11] = test system: CAKI-1
[12] = test system: DLD-1
[13] = test system: EKVX
[14] = test system: MCF7
[15] = test system: NCI/ADR-RES
[16] = test system: BT-549
[17] = test system: DU-145
[18] = test system: MDA-MB-435
[19] = test system: HOP-92
[20] = test system: 786-0

| Compound | GI50 [1] | GI50 [2] | GI50 [3] | GI50 [4] | GI50 [5] | GI50 [6] | GI50 [7] | GI50 [8] | GI50 [9] | GI50 [10] | GI50 [11] | GI50 [12] | GI50 [13] | GI50 [14] | GI50 [15] | GI50 [16] | GI50 [17] | GI50 [18] | GI50 [19] | GI50 [20] |
| --- | --- | --- | --- | --- | --- | --- | --- | --- | --- | --- | --- | --- | --- | --- | --- | --- | --- | --- | --- | --- |
| O=[N+]([O-])c1ccc(C2=Nc3ccccc3SC(c3ccccc3)C2)cc1 (configuration not stated) | 18.1 µM (inactive) | 18.2 µM (inactive) | 13.3 µM (inactive) | 18.2 µM (inactive) | 22.3 µM (inactive) | 20.4 µM (inactive) | 21.7 µM (inactive) | 38.1 µM (inactive) | 15.4 µM (inactive) | 19.4 µM (inactive) | 17.6 µM (inactive) | 18.9 µM (inactive) | 16.6 µM (inactive) |  |  |  |  |  |  |  |
| CN1C2CCC1CC(C)(O)C2 (configuration not stated) |  |  |  |  |  |  | > 100 µM (inactive) | > 100 µM (inactive) |  | > 100 µM (inactive) |  |  | > 100 µM (inactive) | > 100 µM (inactive) | > 100 µM (inactive) | > 100 µM (inactive) | > 100 µM (inactive) | > 100 µM (inactive) |  |  |
| O=C(c1ccco1)C1CC(c2c(O)ccc3ccccc23)=NN1 (configuration not stated) | 11.8 µM (inactive) |  |  | 12.5 µM (inactive) | 18.4 µM (inactive) |  | 15.2 µM (inactive) | 14.3 µM (inactive) |  | 11.9 µM (inactive) | 16.2 µM (inactive) |  | 13.2 µM (inactive) | 3.15 µM (inactive) | 17.9 µM (inactive) | 14.9 µM (inactive) | 14.1 µM (inactive) | 4.55 µM (inactive) | 13.6 µM (inactive) |  |
| COc1ccc(/C=C2\CC3C4CC=C5C[C@@H](O)CC[C@]5(C)C4CC[C@]3(C)\C2=N\O)cc1OC (some centres not stated) | 2.33 µM (inactive) |  |  | 3.98 µM (inactive) | 5.4 µM (inactive) | 5.2 µM (inactive) | 7.28 µM (inactive) | 5.09 µM (inactive) |  | 19.6 µM (inactive) | 9.62 µM (inactive) |  | 6 µM (inactive) | 4.24 µM (inactive) | 9.18 µM (inactive) | 15.1 µM (inactive) | 26.1 µM (inactive) | 23.3 µM (inactive) | 29.2 µM (inactive) | 5.71 µM (inactive) |
| COC(=O)c1ccc(/C=C2\N=C(C)OC2=O)cc1 | > 100 µM (inactive) | > 100 µM (inactive) | > 100 µM (inactive) | > 100 µM (inactive) | > 100 µM (inactive) | > 100 µM (inactive) | > 100 µM (inactive) | > 100 µM (inactive) | > 100 µM (inactive) | > 100 µM (inactive) | > 100 µM (inactive) | > 100 µM (inactive) | > 100 µM (inactive) |  |  |  |  |  | > 100 µM (inactive) |  |
| COC(=O)C1(Cc2ccccc2)Cc2cc3c(cc2C1)CCC3 | 20.3 µM (inactive) |  |  | 30 µM (inactive) | 35.5 µM (inactive) | 29.6 µM (inactive) | 22 µM (inactive) | 68.7 µM (inactive) |  | 30.6 µM (inactive) |  |  | 21.5 µM (inactive) | 15.5 µM (inactive) | 35.5 µM (inactive) | 35 µM (inactive) | 34.5 µM (inactive) | 12.4 µM (inactive) | 11 µM (inactive) | 31.3 µM (inactive) |
| Nc1n[nH]c(CCCCCCCc2nnc(N)[nH]2)n1 | > 100 µM (inactive) | > 100 µM (inactive) |  | > 100 µM (inactive) | > 100 µM (inactive) |  |  | > 100 µM (inactive) | > 100 µM (inactive) | > 100 µM (inactive) |  | > 100 µM (inactive) | > 100 µM (inactive) |  |  |  |  |  |  |  |
| C/C(=N\O)C1CC(CC(=O)O)C1(C)C (configuration not stated) | > 100 µM (inactive) |  |  | > 100 µM (inactive) | > 100 µM (inactive) | > 100 µM (inactive) | > 100 µM (inactive) | > 100 µM (inactive) |  | > 100 µM (inactive) | > 100 µM (inactive) |  | > 100 µM (inactive) | > 100 µM (inactive) | > 100 µM (inactive) | > 100 µM (inactive) | > 100 µM (inactive) | > 100 µM (inactive) | > 100 µM (inactive) | > 100 µM (inactive) |
| CCN1C(=O)C(=Cc2ccc(-c3ccccc3)cc2)C(=O)N(CC)C1=S | 71.8 µM (inactive) |  |  | > 100 µM (inactive) |  | > 100 µM (inactive) | > 100 µM (inactive) | > 100 µM (inactive) |  | > 100 µM (inactive) | > 100 µM (inactive) |  | > 100 µM (inactive) | > 100 µM (inactive) | 34.7 µM (inactive) | > 100 µM (inactive) | > 100 µM (inactive) | > 100 µM (inactive) | > 100 µM (inactive) | > 100 µM (inactive) |
| N=c1c2c(=S)n(-c3ccccc3)c(=S)n(-c3ccccc3)c2nc(SCCCN2CCN(c3cccc(Cl)c3)CC2)n1-c1ccccc1 | 78.5 µM (inactive) |  |  | > 100 µM (inactive) | 50.7 µM (inactive) |  | 98.6 µM (inactive) | 37.5 µM (inactive) |  |  | 84.3 µM (inactive) |  | > 100 µM (inactive) | 53.2 µM (inactive) | > 100 µM (inactive) | > 100 µM (inactive) | 52.8 µM (inactive) | 73.8 µM (inactive) | 42.3 µM (inactive) |  |
| COc1ccc(/C(Cl)=C(\C=O)c2ccc(OC)cc2)cc1 | > 100 µM (inactive) | > 100 µM (inactive) | 37 µM (inactive) | 84.3 µM (inactive) | > 100 µM (inactive) | 46.9 µM (inactive) | > 100 µM (inactive) | > 100 µM (inactive) | 93.3 µM (inactive) | > 100 µM (inactive) | > 100 µM (inactive) | 33.2 µM (inactive) | > 100 µM (inactive) |  |  |  |  |  |  |  |
| COc1cccc(NC(=O)CC(=O)n2nc(-c3ccccc3)c(/N=N/c3ccc(Cl)cc3)c2-c2ccccc2)c1 | 42.8 µM (inactive) |  |  | 19.9 µM (inactive) | 25.6 µM (inactive) | 26.1 µM (inactive) | 20.3 µM (inactive) | 64.1 µM (inactive) |  | 15.2 µM (inactive) | 36.6 µM (inactive) |  | 24 µM (inactive) | 7.57 µM (inactive) | 19.5 µM (inactive) | 11.8 µM (inactive) | 25.3 µM (inactive) | 38.7 µM (inactive) | 18.7 µM (inactive) | 14.4 µM (inactive) |
| CCOC(=O)/C=C1/Oc2ccccc2C1(C)O (configuration not stated) | > 100 µM (inactive) | > 100 µM (inactive) | > 100 µM (inactive) | > 100 µM (inactive) | > 100 µM (inactive) | > 100 µM (inactive) | > 100 µM (inactive) | > 100 µM (inactive) | > 100 µM (inactive) | > 100 µM (inactive) | > 100 µM (inactive) | > 100 µM (inactive) | > 100 µM (inactive) |  |  |  |  |  | > 100 µM (inactive) | > 100 µM (inactive) |
| COC(=O)[C@@H](NC(=O)[C@H](N)Cc1ccc(N(CCCl)CCCl)cc1)C(C)C | 11.1 µM (inactive) |  |  | 3.56 µM (inactive) | 18.7 µM (inactive) | 18.2 µM (inactive) | 18.7 µM (inactive) | 22.4 µM (inactive) |  | 8.17 µM (inactive) | 0.481 µM (active) |  | 34 µM (inactive) | 12.5 µM (inactive) | 12.6 µM (inactive) | 23.4 µM (inactive) | 8.57 µM (inactive) | 19 µM (inactive) | 1.63 µM (inactive) | 8.65 µM (inactive) |
| CN(N)c1nc(N)c(C#N)c(C#N)c1C#N | > 10 µM (inactive) |  |  | > 10 µM (inactive) |  | > 10 µM (inactive) |  | > 10 µM (inactive) |  | > 10 µM (inactive) | > 10 µM (inactive) |  |  | > 10 µM (inactive) | > 10 µM (inactive) | > 10 µM (inactive) | > 10 µM (inactive) | > 10 µM (inactive) | > 10 µM (inactive) | > 10 µM (inactive) |
| CC1OC(O)CC(OC(=O)c2ccccc2)C1OC(=O)c1ccccc1 (configuration not stated) |  |  | 14.5 µM (inactive) | 18.2 µM (inactive) | > 100 µM (inactive) | > 100 µM (inactive) |  | > 100 µM (inactive) | 17.5 µM (inactive) | 16.7 µM (inactive) | 23.3 µM (inactive) | 14.3 µM (inactive) |  |  |  |  |  |  | 20 µM (inactive) | 29.4 µM (inactive) |
| CC1(C)CC[C@]2(C)CC[C@]3(C)C(=CC[C@@H]4[C@@]5(C)CCC(=O)C(C)(C)[C@@H]5[C@H](O)C[C@]43C)[C@@H]2C1 |  |  |  | 16.9 µM (inactive) | 17.3 µM (inactive) | 20.3 µM (inactive) |  | 16.5 µM (inactive) |  | 19 µM (inactive) | 18.3 µM (inactive) |  | 17.8 µM (inactive) | 19 µM (inactive) | 19.6 µM (inactive) | 20.5 µM (inactive) | 18.2 µM (inactive) | 19.9 µM (inactive) | 17.5 µM (inactive) | 15.5 µM (inactive) |
| C[Si](C)(C)OC1(C#N)c2ccccc2CCCC12CCCC2 (configuration not stated) | 49.8 µM (inactive) |  |  | 30.1 µM (inactive) | 46.6 µM (inactive) | 34.9 µM (inactive) | > 100 µM (inactive) | > 100 µM (inactive) |  | 48.3 µM (inactive) | > 100 µM (inactive) |  | 31.3 µM (inactive) | 30.1 µM (inactive) | 89.5 µM (inactive) | > 100 µM (inactive) | 61.1 µM (inactive) | 44.1 µM (inactive) | 29.1 µM (inactive) | 54.7 µM (inactive) |
| CCc1ccc(Nc2cc(=O)[nH]c(=S)n2C)cc1 | 46.3 µM (inactive) | > 100 µM (inactive) | > 100 µM (inactive) |  | > 100 µM (inactive) | > 100 µM (inactive) | > 100 µM (inactive) | > 100 µM (inactive) | > 100 µM (inactive) | > 100 µM (inactive) | > 100 µM (inactive) | > 100 µM (inactive) | 88.3 µM (inactive) |  |  |  |  |  | > 100 µM (inactive) | > 100 µM (inactive) |
